Assay results from patent US6372768B1, “2-aminopyridines containing fused ring substituents” (Pfizer INC, priority 1999, dated 2002).
Where a name gives a salt, the structure may show the parent alone.

melting point	Compound
170 to 172 °C	Nc1cccc(-c2ccc(OCCO)c3c2CCCC3)n1 (as salt: hydrochloride) [Example 2, 6-[4-(2-Hydroxy-ethoxy)-5,6,7,8-tetrahydro-naphthalen-1-yl]-pyridin-2-ylamine]
60 to 75 °C (dec.)	CN(C)CCOCCOc1ccc(-c2cccc(N)n2)c2ccccc12 (as salt: hydrochloride) [Example 3, 6-[4-(2-(2-Dimethylaminoethoxy)-ethoxy)-naphthalen-1-yl]-pyridin-2-ylamine]
